Tests used:
[1] = molecular target: T1, Serine/threonine-protein kinase Nek5 (Homo sapiens) (UniProt Q6P3R8); assay: Selectivity interaction (KinomeScan (DiscoverX)) EUB0000618a NEK5; conditions: at 10 µM
T1 sequence (whole entry): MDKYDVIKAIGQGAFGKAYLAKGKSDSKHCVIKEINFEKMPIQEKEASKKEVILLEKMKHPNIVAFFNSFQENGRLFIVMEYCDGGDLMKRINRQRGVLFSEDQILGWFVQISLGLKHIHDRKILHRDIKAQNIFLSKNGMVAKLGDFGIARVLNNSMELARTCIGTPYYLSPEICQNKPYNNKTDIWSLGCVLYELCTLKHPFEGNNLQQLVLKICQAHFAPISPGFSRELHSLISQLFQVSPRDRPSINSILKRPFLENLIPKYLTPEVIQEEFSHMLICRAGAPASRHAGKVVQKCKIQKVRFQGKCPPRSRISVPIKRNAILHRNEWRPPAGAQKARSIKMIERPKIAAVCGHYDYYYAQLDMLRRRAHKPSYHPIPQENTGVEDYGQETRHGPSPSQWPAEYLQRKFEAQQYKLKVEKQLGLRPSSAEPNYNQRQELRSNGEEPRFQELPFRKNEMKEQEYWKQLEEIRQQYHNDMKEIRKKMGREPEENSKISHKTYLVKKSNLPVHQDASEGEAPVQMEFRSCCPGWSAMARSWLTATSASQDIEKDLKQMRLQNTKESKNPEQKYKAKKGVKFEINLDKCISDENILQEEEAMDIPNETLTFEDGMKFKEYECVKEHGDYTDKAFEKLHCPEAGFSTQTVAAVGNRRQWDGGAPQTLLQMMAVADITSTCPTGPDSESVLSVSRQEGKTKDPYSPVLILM

[2] = molecular target: T2, Ephrin type-A receptor 6 (Homo sapiens) (UniProt Q9UF33); assay: Selectivity interaction (KinomeScan (DiscoverX)) EUB0000618a EPHA6; conditions: at 10 µM
T2 sequence (whole entry): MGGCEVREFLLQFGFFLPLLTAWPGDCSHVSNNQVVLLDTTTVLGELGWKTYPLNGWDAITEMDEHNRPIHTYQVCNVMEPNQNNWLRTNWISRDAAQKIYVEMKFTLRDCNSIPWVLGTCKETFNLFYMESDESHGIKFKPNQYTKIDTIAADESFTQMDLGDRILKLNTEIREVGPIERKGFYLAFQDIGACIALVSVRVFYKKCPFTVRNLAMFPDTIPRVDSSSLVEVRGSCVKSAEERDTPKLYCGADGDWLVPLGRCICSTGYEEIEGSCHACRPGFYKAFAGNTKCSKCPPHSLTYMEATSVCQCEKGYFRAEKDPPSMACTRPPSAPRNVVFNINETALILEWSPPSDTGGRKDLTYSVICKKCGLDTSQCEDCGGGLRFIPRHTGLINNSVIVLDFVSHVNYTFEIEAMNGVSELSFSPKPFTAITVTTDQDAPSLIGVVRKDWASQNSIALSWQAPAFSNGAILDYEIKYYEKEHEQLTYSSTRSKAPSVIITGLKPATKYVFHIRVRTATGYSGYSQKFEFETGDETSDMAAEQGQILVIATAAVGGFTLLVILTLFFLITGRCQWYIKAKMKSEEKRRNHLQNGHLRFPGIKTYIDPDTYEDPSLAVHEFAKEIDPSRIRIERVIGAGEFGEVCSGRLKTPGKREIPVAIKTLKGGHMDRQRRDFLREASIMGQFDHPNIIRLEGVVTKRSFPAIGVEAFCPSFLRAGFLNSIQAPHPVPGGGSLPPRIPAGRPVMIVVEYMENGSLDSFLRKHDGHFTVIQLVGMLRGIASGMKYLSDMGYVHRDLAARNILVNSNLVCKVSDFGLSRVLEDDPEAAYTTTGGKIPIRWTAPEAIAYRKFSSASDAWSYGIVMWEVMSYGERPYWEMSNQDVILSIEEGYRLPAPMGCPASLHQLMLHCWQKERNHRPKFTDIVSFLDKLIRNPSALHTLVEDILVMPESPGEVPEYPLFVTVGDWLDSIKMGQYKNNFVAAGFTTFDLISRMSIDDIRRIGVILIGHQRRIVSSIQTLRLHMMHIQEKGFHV

[3] = molecular target: Tyrosine-protein kinase Yes (Homo sapiens) (UniProt P07947); assay: Selectivity interaction (SelectScreen profiling (Invitrogen)) EUB0000607a YES1; conditions: at 2 µM
[4] = molecular target: Calcium/calmodulin-dependent protein kinase kinase 1 (Homo sapiens) (UniProt Q8N5S9); assay: Selectivity interaction (KinomeScan (DiscoverX)) EUB0000607a CAMKK1; conditions: at 10 µM
[5] = molecular target: Myosin-IIIa (Homo sapiens) (UniProt Q8NEV4); assay: Selectivity interaction (KinomeScan (DiscoverX)) EUB0000229b MYO3A; conditions: at 10 µM
[6] = molecular target: T3, Receptor-interacting serine/threonine-protein kinase 1 (Homo sapiens) (UniProt Q13546); assay: Selectivity interaction (KinomeScan (DiscoverX)) EUB0000229b RIPK1; conditions: at 10 µM
T3 sequence (whole entry): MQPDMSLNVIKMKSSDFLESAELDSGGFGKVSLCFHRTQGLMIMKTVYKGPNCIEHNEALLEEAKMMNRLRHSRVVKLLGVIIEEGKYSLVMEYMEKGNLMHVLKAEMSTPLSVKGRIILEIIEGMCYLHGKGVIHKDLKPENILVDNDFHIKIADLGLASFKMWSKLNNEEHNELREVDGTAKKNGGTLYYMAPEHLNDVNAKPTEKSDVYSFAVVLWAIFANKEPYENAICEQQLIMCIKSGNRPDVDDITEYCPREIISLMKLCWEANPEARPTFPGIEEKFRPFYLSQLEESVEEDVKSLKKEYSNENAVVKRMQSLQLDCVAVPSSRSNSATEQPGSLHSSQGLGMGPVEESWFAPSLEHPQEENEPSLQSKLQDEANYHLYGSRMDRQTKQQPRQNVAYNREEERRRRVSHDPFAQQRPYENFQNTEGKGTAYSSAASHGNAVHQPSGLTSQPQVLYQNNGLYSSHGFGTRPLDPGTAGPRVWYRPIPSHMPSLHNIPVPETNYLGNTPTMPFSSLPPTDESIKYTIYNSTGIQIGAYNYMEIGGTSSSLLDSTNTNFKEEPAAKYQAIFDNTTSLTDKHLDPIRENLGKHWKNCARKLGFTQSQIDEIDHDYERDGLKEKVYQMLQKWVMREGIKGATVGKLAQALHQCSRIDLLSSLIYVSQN

[7] = molecular target: T1, Serine/threonine-protein kinase Nek5 (Homo sapiens); assay: Selectivity interaction (KinomeScan (DiscoverX)) EUB0000666a NEK5; conditions: at 10 µM

Sequence of Calcium/calmodulin-dependent protein kinase kinase 1 (Homo sapiens) (Q8N5S9 whole entry, looked up): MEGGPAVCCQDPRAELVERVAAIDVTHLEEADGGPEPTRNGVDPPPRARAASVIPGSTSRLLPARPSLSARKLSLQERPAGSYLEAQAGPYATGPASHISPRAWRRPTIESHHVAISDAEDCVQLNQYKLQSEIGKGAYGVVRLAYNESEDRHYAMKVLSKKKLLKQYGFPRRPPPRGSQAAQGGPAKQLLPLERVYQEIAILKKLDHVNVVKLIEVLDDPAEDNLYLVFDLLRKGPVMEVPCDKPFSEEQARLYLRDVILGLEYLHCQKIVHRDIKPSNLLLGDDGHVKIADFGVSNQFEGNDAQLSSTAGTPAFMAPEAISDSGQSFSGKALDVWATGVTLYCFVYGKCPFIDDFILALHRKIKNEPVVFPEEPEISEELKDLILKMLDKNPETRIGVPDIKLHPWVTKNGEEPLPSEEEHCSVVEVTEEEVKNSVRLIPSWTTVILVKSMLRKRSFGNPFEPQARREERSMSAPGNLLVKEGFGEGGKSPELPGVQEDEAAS
Sequence of Tyrosine-protein kinase Yes (Homo sapiens) (P07947 2-543 limits assumed): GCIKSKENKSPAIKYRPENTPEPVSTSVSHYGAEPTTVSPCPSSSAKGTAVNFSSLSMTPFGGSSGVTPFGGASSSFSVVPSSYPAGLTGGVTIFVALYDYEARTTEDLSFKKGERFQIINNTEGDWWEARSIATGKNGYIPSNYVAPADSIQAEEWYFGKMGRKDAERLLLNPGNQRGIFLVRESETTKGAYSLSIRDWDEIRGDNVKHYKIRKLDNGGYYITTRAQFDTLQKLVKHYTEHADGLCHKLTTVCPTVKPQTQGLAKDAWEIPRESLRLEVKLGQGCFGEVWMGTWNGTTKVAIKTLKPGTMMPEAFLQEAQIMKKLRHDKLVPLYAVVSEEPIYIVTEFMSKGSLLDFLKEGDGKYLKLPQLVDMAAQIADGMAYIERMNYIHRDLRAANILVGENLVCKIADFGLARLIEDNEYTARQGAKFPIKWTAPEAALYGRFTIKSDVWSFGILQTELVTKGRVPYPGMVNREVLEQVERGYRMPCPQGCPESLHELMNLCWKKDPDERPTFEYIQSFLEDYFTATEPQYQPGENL
Sequence of Myosin-IIIa (Homo sapiens) (Q8NEV4 whole entry): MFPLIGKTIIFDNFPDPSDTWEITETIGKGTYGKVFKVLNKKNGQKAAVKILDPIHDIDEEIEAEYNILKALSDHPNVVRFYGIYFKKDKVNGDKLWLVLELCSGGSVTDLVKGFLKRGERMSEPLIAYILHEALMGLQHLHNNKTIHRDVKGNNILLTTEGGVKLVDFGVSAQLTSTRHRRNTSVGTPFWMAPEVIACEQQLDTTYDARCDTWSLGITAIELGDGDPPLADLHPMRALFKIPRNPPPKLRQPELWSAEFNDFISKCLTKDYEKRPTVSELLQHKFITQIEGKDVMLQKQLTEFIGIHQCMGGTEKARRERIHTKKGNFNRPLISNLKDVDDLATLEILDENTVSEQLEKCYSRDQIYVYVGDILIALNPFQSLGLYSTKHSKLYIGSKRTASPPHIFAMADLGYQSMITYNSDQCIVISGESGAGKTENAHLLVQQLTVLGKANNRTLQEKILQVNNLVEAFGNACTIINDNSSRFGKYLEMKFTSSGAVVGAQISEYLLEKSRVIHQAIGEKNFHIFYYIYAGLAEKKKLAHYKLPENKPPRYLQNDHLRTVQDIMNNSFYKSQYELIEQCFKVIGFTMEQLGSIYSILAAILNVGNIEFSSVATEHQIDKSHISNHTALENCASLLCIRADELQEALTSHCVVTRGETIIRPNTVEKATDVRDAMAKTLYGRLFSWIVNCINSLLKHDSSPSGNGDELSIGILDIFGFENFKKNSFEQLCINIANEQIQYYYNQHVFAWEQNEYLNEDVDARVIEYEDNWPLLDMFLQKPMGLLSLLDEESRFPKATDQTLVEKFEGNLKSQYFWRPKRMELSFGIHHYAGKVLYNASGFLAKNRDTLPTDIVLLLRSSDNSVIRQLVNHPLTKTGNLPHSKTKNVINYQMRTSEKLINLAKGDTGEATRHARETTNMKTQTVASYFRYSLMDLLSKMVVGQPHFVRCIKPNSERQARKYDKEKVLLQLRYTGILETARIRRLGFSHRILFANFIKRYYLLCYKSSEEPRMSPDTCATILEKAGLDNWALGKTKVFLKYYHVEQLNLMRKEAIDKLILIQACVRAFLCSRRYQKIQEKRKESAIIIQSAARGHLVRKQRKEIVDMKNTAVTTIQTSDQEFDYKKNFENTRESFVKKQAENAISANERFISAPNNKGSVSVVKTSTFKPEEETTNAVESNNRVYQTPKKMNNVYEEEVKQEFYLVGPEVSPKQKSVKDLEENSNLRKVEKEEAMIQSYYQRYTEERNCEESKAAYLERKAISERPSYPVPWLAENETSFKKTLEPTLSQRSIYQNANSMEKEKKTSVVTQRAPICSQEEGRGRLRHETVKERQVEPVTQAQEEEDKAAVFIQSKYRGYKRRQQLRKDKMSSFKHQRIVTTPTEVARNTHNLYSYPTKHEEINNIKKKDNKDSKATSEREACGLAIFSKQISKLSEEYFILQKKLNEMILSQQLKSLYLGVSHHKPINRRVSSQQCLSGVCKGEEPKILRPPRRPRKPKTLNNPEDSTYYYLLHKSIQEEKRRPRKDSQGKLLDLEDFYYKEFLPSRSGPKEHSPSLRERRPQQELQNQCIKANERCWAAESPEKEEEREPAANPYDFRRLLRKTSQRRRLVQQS

## O[C@H]1CC[C@H](Nc2ncc3nc(Nc4c(F)cc(F)cc4F)n([C@H]4CCOC4)c3n2)CC1
[1]
  % of control: 100%
[2]
  % of control: 79%

## CNC(=O)Nc1ccc(-c2nc(N3CC4CCC(C3)O4)c3cnn(C4CCC5(CC4)OCCO5)c3n2)cc1
[3]
  % of inhibition: 2%
[4]
  % of control: 100%

## COc1cc(N(C)c2ccnc3ccc(C(F)(F)F)cc23)cc(OC)c1OC
[5]
  % binding: 94%
[6]
  % binding: 98%

## O=C(NOC[C@H](O)CO)c1ccc(F)c(F)c1Nc1ccc(I)cc1F
[7]
  % of control: 78%
